Converted amounts (≈) assume the structure as drawn. The source made the active and inactive calls. No cut-off for these calls is given here.
How the values were obtained:
[1] = system: Staphylococcus aureus; experiment: Antimicrobial activity against Staphylococcus aureus NCTC 8530 after 24 hrs by broth microdilution method; assay type: functional, organism-based
[2] = system: Staphylococcus aureus; experiment: Antimicrobial activity against Staphylococcus aureus IFO 12732 after 24 hrs by broth microdilution method; assay type: functional, organism-based
[3] = system: Proteus vulgaris; experiment: Antimicrobial activity against Proteus vulgaris IFO 3851 after 24 hrs by broth microdilution method; assay type: functional, organism-based
[4] = system: Bacillus subtilis; experiment: Antimicrobial activity against Bacillus subtilis IFO 3007 after 24 hrs by broth microdilution method; assay type: functional, organism-based
[5] = system: Bacillus licheniformis; experiment: Antimicrobial activity against Bacillus licheniformis IFO 12107 after 24 hrs by broth microdilution method; assay type: functional, organism-based
[6] = system: Escherichia coli; experiment: Antimicrobial activity against Escherichia coli IFO 3545 after 24 hrs by broth microdilution method; assay type: functional, organism-based
[7] = system: Saccharomyces cerevisiae; experiment: Antimicrobial activity against Saccharomyces cerevisiae ATCC 7754 after 24 hrs by broth microdilution method; assay type: functional, organism-based
[8] = system: Candida albicans; experiment: Antimicrobial activity against Candida albicans IFO 1061 after 24 hrs by broth microdilution method; assay type: functional, organism-based
[9] = system: Rhodotorula mucilaginosa; experiment: Antimicrobial activity against Rhodotorula mucilaginosa IFO 0001 after 24 hrs by broth microdilution method; assay type: functional, organism-based
[10] = system: Mucor mucedo; experiment: Antimicrobial activity against Mucor mucedo IFO 7684 after 24 hrs by broth microdilution method; assay type: functional; details: IFO 7684, 24 h
[11] = system: Mucor javanicus; experiment: Antimicrobial activity against Mucor javanicus IFO 4569 after 24 hrs by broth microdilution method; assay type: functional; details: IFO 4569, 24 h
[12] = system: Fusarium solani; experiment: Antimicrobial activity against Fusarium solani NBRC 5899 after 24 hrs by broth microdilution method; assay type: functional; details: NBRC 5899, 24 h
[13] = system: Fusarium sporotrichioides; experiment: Antimicrobial activity against Fusarium sporotrichioides NBRC 33236 after 24 hrs by broth microdilution method; assay type: functional; details: NBRC 33236, 24 h
[14] = system: Fusarium avenaceum; experiment: Antimicrobial activity against Fusarium avenaceum NBRC 33237 after 24 hrs by broth microdilution method; assay type: functional; details: NBRC 33237, 24 h
[15] = system: Fusarium graminearum; experiment: Antimicrobial activity against Gibberella zeae NBRC 8850 after 24 hrs by broth microdilution method; assay type: functional; details: NBRC 8850, 24 h
[16] = system: Fusarium fujikuroi; experiment: Antimicrobial activity against Gibberella fujikuroi NBRC 6349 after 24 hrs by broth microdilution method; assay type: functional; details: NBRC 6349, 24 h
[17] = system: Penicillium chrysogenum; experiment: Antimicrobial activity against Penicillium chrysogenum IFO 4626 after 24 hrs by broth microdilution method; assay type: functional; details: IFO 4626, 24 h
[18] = system: Aspergillus niger; experiment: Antimicrobial activity against Aspergillus niger ATCC 6275 after 24 hrs by broth microdilution method; assay type: functional; details: ATCC 6275, 24 h
[19] = system: Aspergillus fumigatus; experiment: Antimicrobial activity against Aspergillus fumigatus IFO 5840 after 24 hrs by broth microdilution method; assay type: functional; details: IFO 5840, 24 h
[20] = system: Aspergillus nidulans; experiment: Antimicrobial activity against Aspergillus nidulans FGSC A4 after 24 hrs by broth microdilution method; assay type: functional; details: FGSC A4, 24 h
[21] = system: Neurospora sitophila; experiment: Antimicrobial activity against Neurospora sitophila DSM 1130 after 24 hrs by broth microdilution method; assay type: functional; details: DSM 1130, 24 h
[22] = system: Rhizopus arrhizus; experiment: Antimicrobial activity against Rhizopus oryzae IFO 4766 after 24 hrs by broth microdilution method; assay type: functional; details: IFO 4766, 24 h
[23] = system: Mucor javanicus; experiment: Antimicrobial activity against Mucor javanicus IFO 4569 at <6.55 uM after 24 hrs by broth microdilution method; assay type: functional
[24] = system: Fusarium oxysporum; experiment: Antimicrobial activity against Fusarium oxysporum NBRC 5942 at <6.55 uM after 24 hrs by broth microdilution method; assay type: functional, organism-based
[25] = system: Fusarium avenaceum; experiment: Antimicrobial activity against Fusarium avenaceum NBRC 33237 at <6.55 uM after 24 hrs by broth microdilution method; assay type: functional, organism-based
[26] = system: Fusarium graminearum; experiment: Antimicrobial activity against Gibberella zeae NBRC 8850 at <6.55 uM after 24 hrs by broth microdilution method; assay type: functional, organism-based
[27] = system: Fusarium fujikuroi; experiment: Antimicrobial activity against Gibberella fujikuroi NBRC 6349 at <6.55 uM after 24 hrs by broth microdilution method; assay type: functional, organism-based
[28] = system: Penicillium chrysogenum; experiment: Antimicrobial activity against Penicillium chrysogenum IFO 4626 at <6.55 uM after 24 hrs by broth microdilution method; assay type: functional, organism-based
[29] = system: Aspergillus niger; experiment: Antimicrobial activity against Aspergillus niger ATCC 6275 at <6.55 uM after 24 hrs by broth microdilution method; assay type: functional, organism-based
[30] = system: Aspergillus nidulans; experiment: Antimicrobial activity against Aspergillus nidulans FGSC A4 at <6.55 uM after 24 hrs by broth microdilution method; assay type: functional, organism-based
[31] = system: Fusarium oxysporum; experiment: Induction of morphological changes in Fusarium oxysporum NBRC 5942 assessed as thickening of hyphae at MIC after 24 hrs by microscopic analysis; assay type: functional, organism-based
[32] = system: Mucor mucedo; experiment: Induction of morphological changes in Mucor mucedo IFO 7684 assessed as swelling of hyphae at tips at MIC after 24 hrs by microscopic analysis; assay type: functional, organism-based
[33] = system: HL-60; experiment: Cytotoxicity against human HL60 cells up to 65.5 uM after 24 hrs by Alamar blue assay; assay type: cell-based; details: hl-60, 24 h
[34] = system: THP-1; experiment: Cytotoxicity against human THP1 cells up to 65.5 uM after 24 hrs by Alamar blue assay; assay type: cell-based; details: thp-1, 24 h
[35] = system: LLC-PK1; experiment: Cytotoxicity against pig LLC-PK1 cells up to 65.5 uM after 24 hrs by Alamar blue assay; assay type: cell-based, Sus scrofa; details: llc-pk1, 24 h
[36] = system: NIH3T3; experiment: Cytotoxicity against mouse NIH/3T3 cells up to 65.5 uM after 24 hrs by Alamar blue assay; assay type: cell-based; details: nih3t3, 24 h
[37] = system: Mucor mucedo; experiment: Antifungal activity against Mucor mucedo IFO 7684 under hyperosmotic shock at 0.026 uM after 2 days by paper disc method; assay type: functional, organism-based
[38] = system: Fusarium oxysporum; experiment: Antifungal activity against Fusarium oxysporum NBRC 5942 under hyperosmotic shock at 0.026 uM after 2 days by paper disc method; assay type: functional, organism-based
[39] = system: Mucor mucedo; experiment: Inhibition of total protein synthesis in Mucor mucedo IFO 7684 assessed as [U-14C]-leucine uptake into acid-insoluble fractions at 0.13 uM after 25 mins by liquid scintillation counting relative to control; assay type: functional; details: IFO 7684, 25 min
[40] = system: Mucor mucedo; experiment: Inhibition of chitin synthase in germinated Mucor mucedo IFO 7684 assessed as incorporation of GlcNAc from [14C]-UDP-GlcNAc into acid-insoluble fractions at 2.61 uM after 60 mins by liquid scintillation counting relative to control
[41] = Binding affinity to chitosan at 6.55 uM after 30 mins by HPLC analysis
[42] = Binding affinity to curdlan at 6.55 uM after 30 mins by HPLC analysis
[43] = Binding affinity to chemically deacetylated chitin at 6.55 uM after 30 mins by HPLC analysis
[44] = system: Mucor mucedo; experiment: Binding affinity to cell wall polysaccharides in Mucor mucedo IFO 7684 at 6.55 uM after 30 mins by HPLC analysis
[45] = system: Mucor mucedo; experiment: Antimicrobial activity against Mucor mucedo IFO 7684 after 24 hrs by broth microdilution method in presence of 100 uM of PKA inhibitor H8; assay type: functional; details: IFO 7684, 24 h
[46] = system: Mucor mucedo; experiment: Antimicrobial activity against Mucor mucedo IFO 7684 after 24 hrs by broth microdilution method in presence of 100 uM of PKA activator dbcAMP; assay type: functional; details: IFO 7684, 24 h
[47] = system: Mucor mucedo; experiment: Effect on cell wall re-generation in Mucor mucedo IFO 7684 spheroplasts at 0.026 uM after 12 hrs by microscopic analysis; assay type: functional

**Q.** What does the source list for `C=C1NC(=O)[C@H]2CSC(=N2)c2csc(n2)-c2ccc3c(n2)[C@H](C)NC(=O)[C@@H]2CCCN2C(=O)/C(=C/C)NC(=O)CNC(=O)[C@H](CCCNC(=N)N)NC(=O)C(C)(NC(=O)/C(=C/C)NC(=O)C2CSC(=N2)[C@H](CC(N)=O)NC3=O)SC[C@@H](C(=O)O)NC(=O)[C@H]2CSC(=N2)c2csc(n2)-c2csc1n2` [CYCLOTHIAZOMYCIN B1]?
**A.** Activity [1]: inactive; Activity [2]: inactive; Activity [3]: inactive; Activity [4]: inactive; Activity [5]: inactive; Activity [6]: inactive; Activity [7]: inactive; Activity [8]: inactive; Activity [9]: inactive; MIC [10]: 0.039 µg/mL (≈ 0.0255 µM); MIC [11]: 0.078 µg/mL (≈ 0.051 µM); MIC [12]: 0.25 µg/mL (≈ 0.164 µM); MIC [13]: 0.031 µg/mL (≈ 0.0203 µM); MIC [14]: 0.25 µg/mL (≈ 0.164 µM); MIC [15]: 0.063 µg/mL (≈ 0.0412 µM); MIC [16]: 0.25 µg/mL (≈ 0.164 µM); MIC [17]: 0.63 µg/mL (≈ 0.412 µM); MIC [18]: > 1000 µg/mL; MIC [19]: > 1000 µg/mL; MIC [20]: > 1000 µg/mL; MIC [21]: > 1000 µg/mL; MIC [22]: > 1000 µg/mL; Activity [23]: inactive; Activity [24]: inactive; Activity [25]: inactive; Activity [26]: inactive; Activity [27]: inactive; Activity [28]: inactive; Activity [29]: inactive; Activity [30]: inactive; Activity [31]: Active; Activity [32]: Active; Activity [33]: Non-toxic; Activity [34]: Non-toxic; Activity [35]: Non-toxic; Activity [36]: Non-toxic; Activity [37]: inactive; Activity [38]: inactive; inhibition at 0.13 µM [39]: 37%; inhibition [40]: 64%; Activity [41]: inactive; Activity [42]: inactive; Activity [43]: inactive; Activity [44]: inactive; MIC [45]: 0.013 µM; MIC [46]: 0.013 µM; Activity [47]: Active

— ChEMBL document CHEMBL1817597, “Antifungal thiopeptide cyclothiazomycin B1 exhibits growth inhibition accompanying morphological changes via binding to fungal cell wall chitin” (Bioorg Med Chem, 2011)
